In series [1] the target is T1, Human PI3Kδ (p110δ/p85α) (Homo sapiens, UniProt O00329).
T1 construct: N-terminal GST tagged recombinant full-length human p110δ; GST (N); host or cells: Baculovirus infected Sf9 cells
Briefly: PI3K isoform HTRF enzyme assay, PI3Kδ. In kind it is biochemical. To be noted: for IC50: 10 μM PIP2, 10 μM ATP, HTRF, read-out: IC50 against PI3Kδ. The protocol:
(§1) The compound of Example 18, methyl 3-(4-fluorobenzamido)-7,8-dimethoxythieno[3,2-c]quinoline-2-carboxylate, was tested for ability to inhibit the four PI3K isoforms PI3Kα, PI3Kβ, PI3Kδ and PI3Kγ in a homogeneous time-resolved fluorescence (HTRF) enzyme assay.
(§2) The assay relies on the action of the aforesaid kinases on the substrate phosphatidylinositol (4,5)-bisphosphate (PIP2), providing the product phosphatidylinositol (3,4,5)-trisphosphate (PIP3). The PIP3 product is detected by displacement of biotin-PIP3 from an energy transfer complex consisting of Europium labeled anti-GST monoclonal antibody, a GST-tagged pleckstrin homology (PH) domain, biotinylated PIP3 and Streptavidin-Allophycocyanin (APC). Excitation of Europium in the complex results in an energy transfer to the APC and a fluorescent emission at 665 nm. The PIP3 product formed by PI 3-kinase(h) activity displaces biotin-PIP3 from the complex resulting in a loss of energy transfer and thus a decrease in signal. […]
(§3) The enzymes (PI3Kα, PI3Kβ, PI3Kδ or PI3Kγ) were delivered into the following kinase reaction buffer containing 10 μM PIP2 substrate: HEPES 50 mM (pH7.0), NaN3 0.02%, BSA 0.01%, Orthovanadate 0.1 mM, 1% DMSO. […] Homogeneous time-resolved fluorescence (HTRF) was measured (Ex=320 nm, ratio of Em=615 nm and Em=665 nm). […]
Background: Time-resolved FRET reads energy transfer from a long-lived donor to a nearby acceptor.

Series [2] concerns K562 (chronic myelogenous leukemia; leukemia cell line +ve for Bcr-Abl). Put plainly: Cancer cell assay, K562 tumor cells, viable cells after 96 hours. The format is cell-based. The note with it: Homo sapiens, 96 hours after treatment, called IC50. The protocol:
(§4) The effect of the compounds of the invention on tumor cells was determined by the assay described by Latham et al., Oncogene 12:827-837 (1996). Tumor cells K562 (chronic myelogenous leukemia; leukemia cell line +ve for Bcr-Abl) or DU145 (prostate cancer) were plated in 12-well dishes at a cell density of 2.5×10^4 cells well. The plated cells were treated 24 hours later with a compound of the invention dissolved in DMSO at multiple concentrations ranging from 0.01 μM to 100 μM. The plates were examined 96 hours later under an inverted microscope, Olympus CK-2 using a 10× objective, and compound activity was noted by physical observation. When necessary, the total number of viable cells was determined by trypsinizing the wells and counting the number of viable cells, as determined by trypan blue exclusion, using a hemacytometer.

Series [3] deals with DU145 (prostate cancer). Briefly: Cancer cell assay, DU145 tumor cells, viable cells after 96 hours. To be noted: Homo sapiens, DU-145, 96 hours after treatment, called IC50. The format is cell-based. The protocol: as §4
Series [4] deals with T2, Human PI3Kα (p110α/p85α) (Homo sapiens, UniProt P42336).
T2 construct: N-terminal GST-tagged recombinant full-length human p110α; GST (N); host or cells: Baculovirus infected Sf9 cells
Briefly: PI3K isoform HTRF enzyme assay, PI3Kα. The format is biochemical. The protocol: as §1, §2, §3

Series [5] has as its target T3, Human PI3Kβ (p110β/p85α) (Homo sapiens, UniProt P42338).
T3 construct: N-terminal 6His-tagged recombinant full-length human p110β; 6His (N); host or cells: Baculovirus infected Sf21 cells
Briefly: PI3K isoform HTRF enzyme assay, PI3Kβ. The format is biochemical. The protocol:
as §1, §2, §3

Series [6] has as its target T4, Human PI3Kγ (p120γ) (Homo sapiens, UniProt P48736).
T4 construct: His (N); host or cells: Baculovirus infected insect cells (printed 'SP)', probably a misprint of Sf9)
Put plainly: PI3K isoform HTRF enzyme assay, PI3Kγ. In kind it is biochemical. The protocol: as §1, §2, §3

The record followed here is patent publication US20150065499A1, “3-AMINOTHIENO[3,2-c]QUINOLINE DERIVATIVES, METHODS OF PREPARATION AND USES” (TEMPLE UNIVERSITY - OF THE COMMONWEALTH SYSTEM OF HIGHER …, priority 2012, published 2015).

Read-outs that look alike come from different tables or passages of the source.

T4 sequence (P48736 whole entry): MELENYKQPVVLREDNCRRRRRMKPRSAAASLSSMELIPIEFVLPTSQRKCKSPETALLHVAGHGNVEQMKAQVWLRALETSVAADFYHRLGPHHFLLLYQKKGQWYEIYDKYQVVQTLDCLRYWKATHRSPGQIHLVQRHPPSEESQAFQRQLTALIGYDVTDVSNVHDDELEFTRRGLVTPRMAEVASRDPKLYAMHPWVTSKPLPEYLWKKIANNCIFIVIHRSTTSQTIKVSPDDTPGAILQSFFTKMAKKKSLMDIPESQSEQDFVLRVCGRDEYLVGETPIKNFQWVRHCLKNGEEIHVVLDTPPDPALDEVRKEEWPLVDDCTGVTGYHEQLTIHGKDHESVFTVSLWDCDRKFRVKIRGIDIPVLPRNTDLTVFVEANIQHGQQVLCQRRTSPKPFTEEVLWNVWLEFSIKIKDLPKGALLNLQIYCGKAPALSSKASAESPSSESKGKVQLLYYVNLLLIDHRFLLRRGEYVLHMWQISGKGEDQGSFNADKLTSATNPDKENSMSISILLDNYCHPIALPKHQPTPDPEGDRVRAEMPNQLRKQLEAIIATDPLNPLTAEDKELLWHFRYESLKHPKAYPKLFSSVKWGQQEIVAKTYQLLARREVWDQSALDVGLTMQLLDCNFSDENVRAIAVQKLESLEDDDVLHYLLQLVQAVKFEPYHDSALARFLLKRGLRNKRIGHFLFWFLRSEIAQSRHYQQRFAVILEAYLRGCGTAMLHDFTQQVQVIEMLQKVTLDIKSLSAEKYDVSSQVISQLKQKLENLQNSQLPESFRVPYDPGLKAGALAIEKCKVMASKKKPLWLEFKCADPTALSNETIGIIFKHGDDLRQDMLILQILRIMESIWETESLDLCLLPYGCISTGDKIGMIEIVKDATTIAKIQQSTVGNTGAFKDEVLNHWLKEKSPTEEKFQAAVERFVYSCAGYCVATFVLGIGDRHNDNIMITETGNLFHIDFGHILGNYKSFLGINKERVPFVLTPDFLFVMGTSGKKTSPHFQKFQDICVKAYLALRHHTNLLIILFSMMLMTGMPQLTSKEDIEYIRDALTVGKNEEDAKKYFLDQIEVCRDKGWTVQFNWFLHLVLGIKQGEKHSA
T1 sequence (O00329 whole entry): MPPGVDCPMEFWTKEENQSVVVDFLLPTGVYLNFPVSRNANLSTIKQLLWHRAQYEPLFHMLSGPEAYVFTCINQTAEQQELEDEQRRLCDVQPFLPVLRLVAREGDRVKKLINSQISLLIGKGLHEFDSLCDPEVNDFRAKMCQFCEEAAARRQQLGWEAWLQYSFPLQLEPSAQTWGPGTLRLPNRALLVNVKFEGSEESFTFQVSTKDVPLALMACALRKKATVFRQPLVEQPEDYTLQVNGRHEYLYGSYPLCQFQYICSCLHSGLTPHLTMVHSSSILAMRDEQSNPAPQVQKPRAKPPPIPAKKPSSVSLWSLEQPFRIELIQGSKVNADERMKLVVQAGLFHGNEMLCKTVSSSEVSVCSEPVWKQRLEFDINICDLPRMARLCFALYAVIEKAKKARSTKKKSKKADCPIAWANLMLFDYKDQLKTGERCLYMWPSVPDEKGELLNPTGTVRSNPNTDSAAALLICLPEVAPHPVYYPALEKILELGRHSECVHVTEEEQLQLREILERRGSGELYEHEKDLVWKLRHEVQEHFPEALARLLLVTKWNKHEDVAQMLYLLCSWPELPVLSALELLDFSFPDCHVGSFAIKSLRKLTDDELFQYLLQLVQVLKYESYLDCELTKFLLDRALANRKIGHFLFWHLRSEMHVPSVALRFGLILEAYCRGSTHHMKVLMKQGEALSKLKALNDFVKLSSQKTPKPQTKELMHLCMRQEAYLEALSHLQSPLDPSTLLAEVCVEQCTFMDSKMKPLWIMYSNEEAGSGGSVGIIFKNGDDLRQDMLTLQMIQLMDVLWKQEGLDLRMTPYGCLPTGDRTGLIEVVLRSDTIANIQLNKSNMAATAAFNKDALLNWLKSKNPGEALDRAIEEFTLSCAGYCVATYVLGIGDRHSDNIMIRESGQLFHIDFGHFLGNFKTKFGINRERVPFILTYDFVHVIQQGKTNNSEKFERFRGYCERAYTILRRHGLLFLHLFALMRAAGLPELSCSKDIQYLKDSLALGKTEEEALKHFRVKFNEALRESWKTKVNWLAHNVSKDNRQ
T1 sequence (P27986 whole entry partner): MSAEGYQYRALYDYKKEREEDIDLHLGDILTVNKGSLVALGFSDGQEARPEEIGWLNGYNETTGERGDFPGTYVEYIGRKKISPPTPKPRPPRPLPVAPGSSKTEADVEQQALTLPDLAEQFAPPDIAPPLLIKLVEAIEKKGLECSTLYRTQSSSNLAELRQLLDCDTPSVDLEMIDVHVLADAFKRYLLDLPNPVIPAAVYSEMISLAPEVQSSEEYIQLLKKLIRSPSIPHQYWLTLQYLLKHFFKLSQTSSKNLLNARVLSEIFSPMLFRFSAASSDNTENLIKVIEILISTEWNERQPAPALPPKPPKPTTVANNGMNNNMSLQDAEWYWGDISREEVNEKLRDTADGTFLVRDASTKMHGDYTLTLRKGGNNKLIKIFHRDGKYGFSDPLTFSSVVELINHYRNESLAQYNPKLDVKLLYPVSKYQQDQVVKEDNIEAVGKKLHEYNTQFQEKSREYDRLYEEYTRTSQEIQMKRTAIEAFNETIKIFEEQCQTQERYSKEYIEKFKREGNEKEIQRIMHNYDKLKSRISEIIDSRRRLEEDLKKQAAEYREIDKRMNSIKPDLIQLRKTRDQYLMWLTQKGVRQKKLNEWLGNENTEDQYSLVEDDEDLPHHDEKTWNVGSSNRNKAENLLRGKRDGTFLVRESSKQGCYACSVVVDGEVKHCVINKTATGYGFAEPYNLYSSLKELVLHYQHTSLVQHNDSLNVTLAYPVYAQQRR
T3 sequence (P42338 whole entry): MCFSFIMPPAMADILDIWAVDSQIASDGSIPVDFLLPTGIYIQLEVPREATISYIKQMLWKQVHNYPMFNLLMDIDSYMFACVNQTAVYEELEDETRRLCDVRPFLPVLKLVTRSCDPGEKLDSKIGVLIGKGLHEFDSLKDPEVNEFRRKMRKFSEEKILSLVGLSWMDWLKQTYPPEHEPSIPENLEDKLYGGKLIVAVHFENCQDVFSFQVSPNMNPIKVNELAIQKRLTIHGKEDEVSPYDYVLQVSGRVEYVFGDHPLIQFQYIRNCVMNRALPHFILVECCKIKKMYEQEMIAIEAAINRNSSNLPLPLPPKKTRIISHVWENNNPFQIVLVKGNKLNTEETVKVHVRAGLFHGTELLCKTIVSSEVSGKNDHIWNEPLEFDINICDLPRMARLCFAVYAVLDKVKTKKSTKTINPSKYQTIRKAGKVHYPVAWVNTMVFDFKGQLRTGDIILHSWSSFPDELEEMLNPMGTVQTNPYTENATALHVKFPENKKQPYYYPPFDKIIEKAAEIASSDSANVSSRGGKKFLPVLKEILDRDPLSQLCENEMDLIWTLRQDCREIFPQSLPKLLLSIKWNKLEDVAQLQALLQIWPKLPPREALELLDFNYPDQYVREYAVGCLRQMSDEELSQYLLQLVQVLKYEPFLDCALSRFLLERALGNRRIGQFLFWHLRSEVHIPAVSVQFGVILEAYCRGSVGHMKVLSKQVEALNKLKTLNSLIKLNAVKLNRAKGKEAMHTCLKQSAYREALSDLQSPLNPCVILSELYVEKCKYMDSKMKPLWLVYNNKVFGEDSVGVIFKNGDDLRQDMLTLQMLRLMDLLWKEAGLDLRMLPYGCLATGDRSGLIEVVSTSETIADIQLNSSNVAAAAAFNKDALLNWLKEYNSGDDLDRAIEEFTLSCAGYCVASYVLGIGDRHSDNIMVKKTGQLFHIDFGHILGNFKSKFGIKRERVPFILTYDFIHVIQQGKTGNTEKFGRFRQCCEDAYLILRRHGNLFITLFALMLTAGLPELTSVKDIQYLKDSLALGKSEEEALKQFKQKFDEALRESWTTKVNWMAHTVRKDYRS
T3 sequence (P27986 whole entry partner): as the sequence (P27986 whole entry partner) above
T2 sequence (P42336 whole entry): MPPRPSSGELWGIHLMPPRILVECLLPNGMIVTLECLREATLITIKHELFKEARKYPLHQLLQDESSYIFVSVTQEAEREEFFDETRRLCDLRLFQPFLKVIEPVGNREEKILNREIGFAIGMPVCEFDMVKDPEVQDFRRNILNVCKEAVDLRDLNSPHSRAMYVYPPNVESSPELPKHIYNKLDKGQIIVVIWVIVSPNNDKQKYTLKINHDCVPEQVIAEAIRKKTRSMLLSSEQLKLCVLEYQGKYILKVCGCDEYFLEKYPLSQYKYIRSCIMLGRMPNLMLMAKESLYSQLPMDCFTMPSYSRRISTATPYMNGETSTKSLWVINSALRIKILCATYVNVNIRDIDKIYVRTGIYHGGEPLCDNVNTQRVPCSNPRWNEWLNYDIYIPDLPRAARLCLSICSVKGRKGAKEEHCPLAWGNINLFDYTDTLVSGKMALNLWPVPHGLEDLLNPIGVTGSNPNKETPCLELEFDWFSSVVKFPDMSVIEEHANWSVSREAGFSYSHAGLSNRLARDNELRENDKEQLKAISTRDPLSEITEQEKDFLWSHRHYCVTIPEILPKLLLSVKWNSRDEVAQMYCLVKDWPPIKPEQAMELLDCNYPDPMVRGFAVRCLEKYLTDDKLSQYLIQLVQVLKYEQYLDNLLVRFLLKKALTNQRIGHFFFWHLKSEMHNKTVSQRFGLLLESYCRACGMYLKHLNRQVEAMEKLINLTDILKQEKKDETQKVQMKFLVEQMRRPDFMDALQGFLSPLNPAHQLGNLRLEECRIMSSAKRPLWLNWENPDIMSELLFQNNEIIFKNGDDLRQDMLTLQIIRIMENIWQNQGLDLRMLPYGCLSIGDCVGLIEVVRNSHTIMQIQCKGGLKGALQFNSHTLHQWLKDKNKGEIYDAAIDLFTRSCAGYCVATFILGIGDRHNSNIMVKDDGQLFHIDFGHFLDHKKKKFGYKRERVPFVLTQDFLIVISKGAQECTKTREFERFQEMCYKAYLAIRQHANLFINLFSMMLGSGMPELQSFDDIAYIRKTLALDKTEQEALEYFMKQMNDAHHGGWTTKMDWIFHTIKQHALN
T2 sequence (P27986 whole entry partner): as the sequence (P27986 whole entry partner) above

For the compound `O=c1cc(N2CCOCC2)oc2c(-c3ccccc3)cccc12` [LY294002, 2-(4-morpholinyl)-8-phenyl-chromone, reference compound], the IC50 (as a rule, the concentration at which inhibition is half-maximal) in series [1] was 0.32 µM.
Take `COC(=O)c1sc2c(cnc3cc(OCCCN4CCOCC4)c(OC)cc32)c1N` [Example 11, Methyl 3-amino-8-methoxy-7-(3-morpholinopropoxy)thieno[3,2-c]quinoline-2-carboxylate]: the melting point (usually the temperature, or range, at which the solid turns liquid) fell in the range of 117 to 120 °C. In series [2], this compound gave an IC50 of 1 to 10 µM. Besides, the IC50 in series [3] lay within 1 to 10 µM.
With `COc1cc2ncc3c(N)c(-c4nnn[nH]4)sc3c2cc1OC` [Example 33, 7,8-dimethoxy-2-(1H-tetrazol-5-yl)thieno[3,2-e]quinolin-3-amine], the melting point lay in the range of 252 to 255 °C. The same compound registered an IC50 in series [2] of 25 to 50 µM. This compound yielded an IC50 in series [3] of 50 to 100 µM.
The matching figures for `N#Cc1sc2c(cnc3ccc(F)cc32)c1N` [Example 36, 3-Amino-8-fluorothieno[3,2-c]quinoline-2-carbonitrile]: more than 300 °C, 75 µM and 75 µM.
The matching figures for `COC(=O)c1sc2c(cnc3cc(OC)c(O)cc32)c1N` [Example 10, Methyl 3-amino-8-hydroxy-7-methoxythieno[3,2-c]quinoline-2-carboxylate]: 277 to 280 °C, more than 100 µM and more than 100 µM.
With `COC(=O)c1sc2c(cnc3cc(OC)c(OC)cc32)c1NC(=O)c1ccc(F)cc1` [Example 18, Methyl 3-(4-fluorobenzamido)-7,8-dimethoxythieno[3,2-c]quinoline-2-carboxylate], the melting point fell in the range of 196 to 198 °C. Moreover, the IC50 in series [4] (10 μM PIP2, 10 μM ATP, HTRF, read-out: IC50 against PI3Kα) is 25.3 µM. The “inhibition of other isoforms of PI3K (PI3Kα), in words” value in series [4] (Table 2) is reported as “does not inhibit”. This compound also displayed an IC50 in series [2] of 0.15 µM. For the same compound, in series [1], the IC50 came out at 25.7 µM. In addition, the “inhibition of other isoforms of PI3K (PI3Kδ), in words” value in series [1] (Table 2) is on record as “does not inhibit”. For the same compound, in series [5] (10 μM PIP2, 10 μM ATP, HTRF, read-out: IC50 against PI3Kβ), the IC50 stood at 8.54 µM. Moreover, the “inhibition of other isoforms of PI3K (PI3Kβ), in words” value in series [5] (Table 2) is reported as “does not inhibit”. In series [3], this compound returned an IC50 of 2.5 µM. The IC50 in series [6] (10 μM PIP2, 10 μM ATP, HTRF, read-out: IC50 against PI3Kγ) is 1.01 µM. Moreover, in series [6] (Table 2, read-out: IC50 against PI3Kγ isoform), the IC50 came to 1 µM. In series [6] (statement in description), the “selective inhibition of the activity of PI3Kγ, in words” value is given as “selectively inhibits”.
For the compound `COC(=O)c1sc2c(cnc3cc(OC)c(OCCCN4CCOCC4)cc32)c1N` [Example 15, Methyl 3-amino-7-methoxy-8-(3-morpholinopropoxy)thieno[3,2-c]quinoline-2-carboxylate], the melting point is 188 to 190 °C. Besides, in series [2], the IC50 is 10 to 25 µM. In addition, in series [3], the IC50 was 10 to 25 µM.
`COC(=O)c1sc2c(cnc3cc(OC)c(OC)cc32)c1NC(=O)C(=O)N1CCN(c2ccncc2)CC1` [Example 27, Methyl 7,8-dimethoxy-3-{2-oxo-2-[4-(pyridin-4-yl)piperazin-1-yl]acetamido}thieno[3,2-c]quinoline-2-carboxylate]: the melting point lay within 245 to 248 °C. The same compound came in with an IC50 in series [2] of 1 to 10 µM. In series [3], this compound had an IC50 of 1 to 10 µM.
`COC(=O)c1sc2c(cnc3cc(OC)c(OC)cc32)c1NC(=O)c1ccccc1F` [Example 17, Methyl 3-(2-fluorobenzamido)-7,8-dimethoxythieno[3,2-c]quinoline-2-carboxylate] displayed a melting point of 237 to 240 °C. The same compound gave an IC50 in series [2] of 0.1 to 0.25 µM. Moreover, the IC50 in series [3] was in the range of 0.5 to 1 µM.
`COC(=O)c1sc2c(cnc3cc(OCCN4CCOCC4)c(OC)cc32)c1N` [Example 14, Methyl 3-amino-8-methoxy-7-(2-morpholinoethoxy)thieno[3,2-c]quinoline-2-carboxylate] showed a melting point of 158 to 160 °C. The compound also came in with an IC50 in series [2] of 10 to 25 µM. The IC50 in series [3] was in the range of 10 to 25 µM.
`COc1cc2ncc3c(N)c(C(=O)C(F)(F)F)sc3c2cc1OC` [Example 5, 1-(3-Amino-7,8-dimethoxythieno[3,2-c]quinolin-2-yl)-2,2,2-trifluoroethanone] had a melting point of 230 to 234 °C. The IC50 in series [2] lay in the range of 1 to 10 µM. For the same compound, the IC50 in series [3] was more than 10 µM.
Consider `COC(=O)c1sc2c(cnc3cc(OC)c(OC)cc32)c1/N=C/N(C)C` [Example 32, (E)-methyl 3-(((dimethylamino)methylene)amino)-7,8-dimethoxythieno[3,2-c]quinoline-2-carboxylate], for which the melting point lay in the range of 173 to 175 °C. Besides, the IC50 in series [2] was 10 to 25 µM. The half-inhibitory concentration (IC50) in series [3] lay in the range of 10 to 25 µM.
